Laboratory results as given in PMC9358669, “Native metabolomics identifies the rivulariapeptolide family of protease inhibitors” (Nature Communications, 2022).
“And” between values parts separate entries of the source, which are not always exact repeats. Identical values can stand only once. Like-named read-outs stand apart in the source and are kept apart here.

Columns and labels:
Chymotrypsin [1] = molecular target: T1, Chymotrypsin (Bos taurus, UniProt P00766); assay: Chymotrypsin inhibition, fluorogenic substrate assay (Suc-Ala-Ala-Pro-Phe-AMC); assay type: biochemical; details: for Mean (RFU/s): Chymotrypsin
T1 construct: purchased Sigma-Aldrich

Elastase = molecular target: T2, Elastase (Sus scrofa, UniProt P00772); assay: Elastase inhibition, fluorogenic substrate assay (MeOSuc-Ala-Ala-Pro-Val-AMC); assay type: biochemical, Sus domesticus; details: 40 min pre-incubation; for Mean (RFU/s): Elastase
T2 construct: purchased Sigma-Aldrich
T2 sequence (P00772 27-266): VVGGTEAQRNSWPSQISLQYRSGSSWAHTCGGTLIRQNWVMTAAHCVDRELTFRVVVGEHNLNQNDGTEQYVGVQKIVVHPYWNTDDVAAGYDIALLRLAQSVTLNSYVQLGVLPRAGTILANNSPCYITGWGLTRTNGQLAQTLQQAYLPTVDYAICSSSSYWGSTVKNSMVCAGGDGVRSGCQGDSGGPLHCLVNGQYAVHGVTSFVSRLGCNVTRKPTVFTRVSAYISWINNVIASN

Proteinase K = molecular target: T3, Proteinase K (Parengyodontium album, UniProt P06873); assay: Proteinase K inhibition, fluorogenic substrate assay (Suc-Ala-Ala-Pro-Phe-AMC); assay type: biochemical, Tritirachium album; details: 40 min pre-incubation; for Mean (RFU/s): Proteinase K
T3 construct: purchased Roche
T3 sequence (P06873 106-384): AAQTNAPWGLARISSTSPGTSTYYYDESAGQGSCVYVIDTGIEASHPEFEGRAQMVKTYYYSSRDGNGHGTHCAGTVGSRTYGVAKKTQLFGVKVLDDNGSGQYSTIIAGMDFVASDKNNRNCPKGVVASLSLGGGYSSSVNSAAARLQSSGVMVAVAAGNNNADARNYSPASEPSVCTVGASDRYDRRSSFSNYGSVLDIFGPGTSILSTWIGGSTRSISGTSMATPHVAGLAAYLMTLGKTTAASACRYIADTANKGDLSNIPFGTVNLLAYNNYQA

Chymotrypsin [2] = molecular target: T1, Chymotrypsin; assay: Native metabolomics / native MS detection of chymotrypsin-ligand complexes; assay type: binding; details: for max. Ligand-protein ratio: replicates A, B, C
Description: For native metabolomics experiments, the same chromatographic parameters were used and in addition, 220 µL/min (setup A) or 150 µL/min (setup B) ammonium acetate buffer was infused post-column through a make-up pump and a PEEKT-splitter and enzyme solution was infused with 2 µL/min flow rate via the integrated syringe pump. ESI settings were set to 40 arb. units sheath gas flow, the auxiliary gas flow was set to 10 arb. units and sweep gas flow was set to 0 arb. units. The auxiliary gas temperature was set to 150 °C. The spray voltage was set to 3 kV and the inlet capillary was heated to 253 °C. S-lens level was set to 30 V applied. MS scan range was set to 2000-4000 m/z (setup A) and 2500–4000 m/z (setup B) with a resolution Rm/z 200 140,000 (setup A) and 120,000 (setup B) with 2 microscans. MS acquisition was performed in all-ion fragmentation (AIF) mode with Rm/z 200 with 20% HCD collision energy and an isolation window of 2000 –4000 m/z (setup A) or 2500–4000 m/z (setup B).
For native LC-MS data, multiple charged spectra were deconvoluted using the Xtract algorithm in Qualbrowser, part of the Xcalibur software (Thermo Scientific) and also using FLASHDeconv (version 2.0Beta) {Jeong, K. et al. FLASHDeconv: Ultrafast, High-Quality Feature Deconvolution for Top- Down Proteomics. Cell Syst 10, 213-218 e216 (2020).}. For Xtract algorithm, both deconvoluted native LC-MS and metabolomics LC-MS/MS.raw files were converted to the centroid.mzML file format using MSconvert of the proteowizard software package. For FLASHDeconv, the raw files were converted into centroid m/zML again using MSconvert software first. Then the converted mzML files were deconvolved to generate deconvolved.mzML format files. Feature finding of both file types was performed using a modified version of MZmine2.37 (corr.17.7). Feature tables from both intact protein mass and metabolomics data were matched by their retention time (RT) and an m/z offset corresponding to the mass of chymotrypsin (25234 Da) with an RT tolerance of 0.2 min and a mass tolerance of 4 Da.
To optimize ESI setting as well as the influence of NH4Acetate concentration and pH, we used molassamide as a test compound. For optimization of ESI settings, we performed flow injections without a column and ramped ESI aux gas temperature, in-source CID energy, S-lense RF voltage. Optimization of pH values over the entire LC gradient and peak intensities were both assessed using three different make-up buffers. Make-up buffer 1 was water, make-up buffer 2 was 10 mM NH4Acetate buffer, and make-up buffer 3 was 10 mM NH4Acetate buffer + 0.2% ammonium hydroxide, v/v. Effects of NH4Acetate concentration was assessed with an online mixed make-up flow (using Experimental Setup B) with the low-pressure gradient pump. As solvent A we used LC-MS grade water and 100 mM NH4Acetate as solvent B. Molassamide was prepared as 100 µM solutions from a 10 mM stock solution in DMSO by preparing a 1:100 dilution into solvent mixture 1 (water + 10% acetonitrile + 0.1% formic acid). Samples were analyzed as described in micro-flow LC-MS/MS data acquisition (setup A); 2 µL of each solution were injected into the mass spectrometer, while chymotrypsin (Sigma), dissolved in water to a final concentration of 2 mg/mL, was injected through the syringe pump at a flow rate of 2 µL/min. pH values were assessed by disconnecting the flow to the source and collecting ~30 µL of solvent every minute, then testing this value on pH paper.
Molassamide was prepared as 100 µM solutions from a 10 mM stock solution in DMSO by preparing a 1:100 dilution into solvent mixture 1 (water + 10% acetonitrile + 0.1% formic acid). From this 100 µM solution, dilutions were prepared at 10, 1, and 0.1 µM into solvent mixture 1. 2 µL of each solution were injected into the mass spectrometer. […]

Chymotrypsin [3] = system: Chymotrypsin; design: method as in earlier work; details: Supplementary Table 5, Top 50 chymotrypsin inhibitors among Ahp-cyclodepsipeptides; cited from earlier work
[4] = inhibitor concentration 0.0508053 nM
[5] = inhibitor concentration 0.152416 nM
[6] = inhibitor concentration 0.457247 nM
[7] = inhibitor concentration 1.37174 nM
[8] = inhibitor concentration 4.11523 nM
[9] = inhibitor concentration 12.3457 nM
[10] = inhibitor concentration 37.037 nM
[11] = inhibitor concentration 111.111 nM
[12] = inhibitor concentration 333.333 nM
[13] = inhibitor concentration 1000 nM
[14] = inhibitor concentration 3000 nM

With `C/C=C1\NC(=O)[C@@H](NC(=O)[C@@H](NC(=O)[C@H](C)NC(=O)CCC)[C@@H](C)O)[C@@H](C)OC(=O)[C@H](C(C)C)NC(=O)[C@H](Cc2ccc(O)cc2)N(C)C(=O)[C@H](Cc2ccccc2)N2C(=O)[C@H](CC[C@H]2O)NC1=O` [Molassamide, molassamide] the IC50 (Chymotrypsin [1]; 40 min pre-incubation, mean, n = 3, read-out: IC50 Chymotrypsin) was 863 nM, the “Mean (RFU/s)” value (Chymotrypsin [1]; inhibitor concentration 0.0508053 nM, 40 min pre-incubation) was 5.082 RFU/s and the “Mean (RFU/s)” value (Chymotrypsin [1]; inhibitor concentration 0.152416 nM, 40 min pre-incubation) was 5.023 RFU/s. For the same compound, the “Mean (RFU/s)” value (Chymotrypsin [1]; inhibitor concentration 0.457247 nM, 40 min pre-incubation) was 5.172 RFU/s, the “Mean (RFU/s)” value (Chymotrypsin [1]; inhibitor concentration 1.37174 nM, 40 min pre-incubation) was 5.411 RFU/s and the “Mean (RFU/s)” value (Chymotrypsin [1]; inhibitor concentration 4.11523 nM, 40 min pre-incubation) was 5.346 RFU/s. The “Mean (RFU/s)” value (Chymotrypsin [1]; inhibitor concentration 12.3457 nM, 40 min pre-incubation) was 5.257 RFU/s, the “Mean (RFU/s)” value (Chymotrypsin [1]; inhibitor concentration 37.037 nM, 40 min pre-incubation) was 4.609 RFU/s and the “Mean (RFU/s)” value (Chymotrypsin [1]; inhibitor concentration 111.111 nM, 40 min pre-incubation) was 4.56 RFU/s. For the same compound, the “Mean (RFU/s)” value (Chymotrypsin [1]; inhibitor concentration 333.333 nM, 40 min pre-incubation) was 3.784 RFU/s, the “Mean (RFU/s)” value (Chymotrypsin [1]; inhibitor concentration 1000 nM, 40 min pre-incubation) was 2.129 RFU/s and the “Mean (RFU/s)” value (Chymotrypsin [1]; inhibitor concentration 3000 nM, 40 min pre-incubation) was 0.9597 RFU/s. The IC50 (Chymotrypsin [1]; Supplementary Table 5, compounds of this study, read-out: Chymotrypsin IC50) was 862 nM, the IC50 (Elastase; mean, n = 3) was 37.6 nM and the “Mean (RFU/s)” value (Elastase; [4]) was 0.8563 RFU/s. The “Mean (RFU/s)” value (Elastase; [5]) was 0.8307 RFU/s, the “Mean (RFU/s)” value (Elastase; [6]) was 0.841 RFU/s and the “Mean (RFU/s)” value (Elastase; [7]) was 0.8127 RFU/s. For the same compound, the “Mean (RFU/s)” value (Elastase; [8]) was 0.7663 RFU/s, the “Mean (RFU/s)” value (Elastase; [9]) was 0.6947 RFU/s and the “Mean (RFU/s)” value (Elastase; [10]) was 0.4253 RFU/s. The “Mean (RFU/s)” value (Elastase; [11]) was 0.1337 RFU/s, the “Mean (RFU/s)” value (Elastase; [12]) was 0.03867 RFU/s and the “Mean (RFU/s)” value (Elastase; [13]) was 0 RFU/s. The “Mean (RFU/s)” value (Elastase; [14]) was 0 RFU/s, the IC50 (Proteinase K; mean, n = 3) was 21.6 nM and the “Mean (RFU/s)” value (Proteinase K; [4]) was 6.609 RFU/s. The “Mean (RFU/s)” value (Proteinase K; [5]) was 6.463 RFU/s, the “Mean (RFU/s)” value (Proteinase K; [6]) was 6.371 RFU/s and the “Mean (RFU/s)” value (Proteinase K; [7]) was 6.067 RFU/s. For the same compound, the “Mean (RFU/s)” value (Proteinase K; [8]) was 5.597 RFU/s, the “Mean (RFU/s)” value (Proteinase K; [9]) was 4.375 RFU/s and the “Mean (RFU/s)” value (Proteinase K; [10]) was 2.174 RFU/s. The “Mean (RFU/s)” value (Proteinase K; [11]) was 0.71 RFU/s, the “Mean (RFU/s)” value (Proteinase K; [12]) was 0.19 RFU/s and the “Mean (RFU/s)” value (Proteinase K; [13]) was 0.07 RFU/s. For the same compound, the “Mean (RFU/s)” value (Proteinase K; [14]) was 0 RFU/s, the “Relative abundance Chymotrypsin-molassamide complex [%], Average” value (Chymotrypsin [2]; HESI Aux Gas Temperature 40 °C) was 32.7% and the “Relative abundance Chymotrypsin-molassamide complex [%], Average” value (Chymotrypsin [2]; HESI Aux Gas Temperature 70 °C) was 28.3%. The “Relative abundance Chymotrypsin-molassamide complex [%], Average” value (Chymotrypsin [2]; HESI Aux Gas Temperature 100 °C) was 32.3%, the “Relative abundance Chymotrypsin-molassamide complex [%], Average” value (Chymotrypsin [2]; HESI Aux Gas Temperature 140 °C) was 39.0% and the “Relative abundance Chymotrypsin-molassamide complex [%], Average” value (Chymotrypsin [2]; HESI Aux Gas Temperature 170 °C) was 34.0%. The “Relative abundance Chymotrypsin-molassamide complex [%], Average” value (Chymotrypsin [2]; HESI Aux Gas Temperature 200 °C) was 35.3%, the “Relative abundance Chymotrypsin-molassamide complex [%], Average” value (Chymotrypsin [2]; HESI Aux Gas Temperature 250 °C) was 27.7% and the “Relative abundance Chymotrypsin-molassamide complex [%], Average” value (Chymotrypsin [2]; HESI Aux Gas Temperature 300 °C) was 28.7%. For the same compound, the “Relative abundance Chymotrypsin-molassamide complex [%], Average” value (Chymotrypsin [2]; In-Source CID Energy 0 eV) was 27.7%, the “Relative abundance Chymotrypsin-molassamide complex [%], Average” value (Chymotrypsin [2]; In-Source CID Energy 10 eV) was 29.3% and the “Relative abundance Chymotrypsin-molassamide complex [%], Average” value (Chymotrypsin [2]; In-Source CID Energy 20 eV) was 33.0%. The “Relative abundance Chymotrypsin-molassamide complex [%], Average” value (Chymotrypsin [2]; In-Source CID Energy 30 eV) was 32.3%, the “Relative abundance Chymotrypsin-molassamide complex [%], Average” value (Chymotrypsin [2]; In-Source CID Energy 40 eV) was 30.7% and the “Relative abundance Chymotrypsin-molassamide complex [%], Average” value (Chymotrypsin [2]; In-Source CID Energy 60 eV) was 12.3%. The “Relative abundance Chymotrypsin-molassamide complex [%], Average” value (Chymotrypsin [2]; In-Source CID Energy 80 eV) was 1.3%, the “Relative abundance Chymotrypsin-molassamide complex [%], Average” value (Chymotrypsin [2]; S-Lense RF level 10 %) was 34.3% and the “Relative abundance Chymotrypsin-molassamide complex [%], Average” value (Chymotrypsin [2]; S-Lense RF level 30 %) was 31.0%. For the same compound, the “Relative abundance Chymotrypsin-molassamide complex [%], Average” value (Chymotrypsin [2]; S-Lense RF level 50 %) was 30.0%, the “Relative abundance Chymotrypsin-molassamide complex [%], Average” value (Chymotrypsin [2]; S-Lense RF level 70 %) was 40.7% and the “Relative abundance Chymotrypsin-molassamide complex [%], Average” value (Chymotrypsin [2]; S-Lense RF level 90 %) was 30.7%. For the same compound, the “max. Ligand-protein ratio” value (Chymotrypsin [2]; concentration 0.01 µM) was 0.00, the “max. Ligand-protein ratio” value (Chymotrypsin [2]; concentration 0.10 µM) was 0.0566 and 0.0543 and 0.05 and the “max. Ligand-protein ratio” value (Chymotrypsin [2]; concentration 1.00 µM) was 0.25 and 0.22 and 0.26. The “max. Ligand-protein ratio” value (Chymotrypsin [2]; concentration 6.67 µM) was 0.77 (2×) and 0.82, the “max. Ligand-protein ratio” value (Chymotrypsin [2]; concentration 12.50 µM) was 0.98 and 0.93 and 0.99 and the “max. Ligand-protein ratio” value (Chymotrypsin [2]; concentration 20.00 µM) was 0.94 (2×) and 1.00. The “Peak Area Protein-Ligand-Complex” value (Chymotrypsin [2]; concentration [µM] 0.1) was 6.16E+04, the “Peak Area Protein-Ligand-Complex” value (Chymotrypsin [2]; concentration [µM] 1) was 8.18E+05 and the “Peak Area Protein-Ligand-Complex” value (Chymotrypsin [2]; concentration [µM] 10) was 1.09E+07. The “Peak Area Protein-Ligand-Complex” value (Chymotrypsin [2]; concentration [µM] 50) was 4.40E+07, the “Peak Area Protein-Ligand-Complex” value (Chymotrypsin [2]; concentration [µM] 100) was 7.00E+07 and the IC50 (Chymotrypsin [3]) was 234 nM.
